Common to all, as to type: cell-based
The target of assay [1] is hKv1.3 (Homo sapiens, UniProt P22001). As to the kind of experiment: cell-based.
Assay [2] relates to IL-2 secretion from T cells in human whole blood. Particulars: read-out: WB (IL-2) IC50 (nM, Avg).
In assay [3] the test system is IFN-g secretion from T cells in human whole blood. Particulars: read-out: WB (IFNg) IC50 (nM, Avg).

Drawing on patent US20120121591A1 (priority 2009, published 2012), this text covers IC50 for seven molecules.

Read-outs that look alike come from different tables or passages of the source.

Sequence of hKv1.3 (P22001 whole entry): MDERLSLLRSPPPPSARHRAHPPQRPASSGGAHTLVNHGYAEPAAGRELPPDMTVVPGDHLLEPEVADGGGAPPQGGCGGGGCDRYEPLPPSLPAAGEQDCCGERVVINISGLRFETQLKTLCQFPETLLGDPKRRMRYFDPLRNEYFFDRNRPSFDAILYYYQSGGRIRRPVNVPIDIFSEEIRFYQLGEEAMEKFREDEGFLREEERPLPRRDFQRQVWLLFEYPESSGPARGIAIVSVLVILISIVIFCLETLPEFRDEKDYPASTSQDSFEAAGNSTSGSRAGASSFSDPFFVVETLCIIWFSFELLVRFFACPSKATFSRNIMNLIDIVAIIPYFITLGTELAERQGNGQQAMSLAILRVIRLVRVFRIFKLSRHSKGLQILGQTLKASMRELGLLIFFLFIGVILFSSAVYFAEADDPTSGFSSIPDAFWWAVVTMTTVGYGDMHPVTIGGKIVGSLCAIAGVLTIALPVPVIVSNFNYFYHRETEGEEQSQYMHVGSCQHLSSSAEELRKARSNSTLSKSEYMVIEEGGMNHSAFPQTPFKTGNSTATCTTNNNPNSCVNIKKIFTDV

Take “20kDaPEG-[-Nal16]ShK (RSCIDTIPKSRCTAFXCKHSMKYRLSFCRKTCGTC; 20 kDa PEG; 1-Nal16; ShK PEGylated toxin peptide analog; PEGylated; 3-(1-naphthyl)alanine)”: in assay [1] (read-out: Kv1.3 (IWQ) IC50 (nM, Avg)), the IC50 worked out at 39.1 nM.

In the case of `CC[C@H](C)[C@@H]1NC(=O)[C@@H](NC(=O)[C@H](CO)NC(=O)[C@@H](N)CCCNC(=N)N)CSSC[C@@H](C(=O)O)NC(=O)[C@H]([C@@H](C)O)NC(=O)CNC(=O)[C@@H]2CSSC[C@@H]3NC(=O)[C@H](CCC(N)=O)NC(=O)[C@H](Cc4ccccc4)NC(=O)[C@H](C)NC(=O)[C@H]([C@@H](C)O)NC(=O)[C@H](CSSC[C@H](NC(=O)[C@H](Cc4ccccc4)NC(=O)[C@H](CO)NC(=O)[C@H](CC(C)C)NC(=O)[C@H](CCCNC(=N)N)NC(=O)[C@H](Cc4ccc(O)cc4)NC(=O)[C@H](CCCCN)NC(=O)[C@H](CCSC)NC(=O)[C@H](Cc4cccc5ccccc45)NC(=O)[C@H](Cc4cnc[nH]4)NC(=O)[C@H](CCCCN)NC3=O)C(=O)N[C@@H](CCCNC(=N)N)C(=O)N[C@@H](CCCCN)C(=O)N[C@@H]([C@@H](C)O)C(=O)N2)NC(=O)[C@H](CCCNC(=N)N)NC(=O)[C@H](CO)NC(=O)[C@H](CCCCN)NC(=O)[C@@H]2CCCN2C(=O)[C@H]([C@@H](C)CC)NC(=O)[C@H]([C@@H](C)O)NC(=O)[C@H](CC(=O)O)NC1=O` [[1-Nal20]ShK], 2.11 nM corresponded to half-maximal inhibition in assay [1] (Kv1.3 (IWQ) IC50 (nM, Avg)) (IC50).

`CC[C@H](C)[C@@H]1NC(=O)[C@@H](NC(=O)[C@H](CO)NC(=O)[C@@H](N)CCCNC(=N)N)CSSC[C@@H](C(=O)O)NC(=O)[C@H](Cc2cccc3ccccc23)NC(=O)CNC(=O)[C@@H]2CSSC[C@@H]3NC(=O)[C@H](CCC(N)=O)NC(=O)[C@H](Cc4ccccc4)NC(=O)[C@H](C)NC(=O)[C@H]([C@@H](C)O)NC(=O)[C@H](CSSC[C@H](NC(=O)[C@H](Cc4ccccc4)NC(=O)[C@H](CO)NC(=O)[C@H](CC(C)C)NC(=O)[C@H](CCCNC(=N)N)NC(=O)[C@H](Cc4ccc(O)cc4)NC(=O)[C@H](CCCCN)NC(=O)[C@H](CCSC)NC(=O)[C@H](CO)NC(=O)[C@H](Cc4cnc[nH]4)NC(=O)[C@H](CCCCN)NC3=O)C(=O)N[C@@H](CCCNC(=N)N)C(=O)N[C@@H](CCCCN)C(=O)N[C@@H]([C@@H](C)O)C(=O)N2)NC(=O)[C@H](CCCNC(=N)N)NC(=O)[C@H](CO)NC(=O)[C@H](CCCCN)NC(=O)[C@@H]2CCCN2C(=O)[C@H]([C@@H](C)CC)NC(=O)[C@H]([C@@H](C)O)NC(=O)[C@H](CC(=O)O)NC1=O` [[1-Nal34]ShK] returned a half-maximal inhibitory concentration (IC50) in assay [1] (Kv1.3 (IWQ) IC50 (nM, Avg)) of 0.077 nM.

In the case of `CC[C@H](C)[C@@H]1NC(=O)[C@@H](NC(=O)[C@H](CO)NC(=O)[C@@H](N)CCCNC(=N)N)CSSC[C@@H](C(=O)O)NC(=O)[C@H]([C@@H](C)O)NC(=O)CNC(=O)[C@@H]2CSSC[C@@H]3NC(=O)[C@H](CCC(N)=O)NC(=O)[C@H](Cc4ccccc4)NC(=O)[C@H](C)NC(=O)[C@H]([C@@H](C)O)NC(=O)[C@H](CSSC[C@H](NC(=O)[C@H](Cc4ccccc4)NC(=O)[C@H](CO)NC(=O)[C@H](CC(C)C)NC(=O)[C@H](CCCNC(=N)N)NC(=O)[C@H](Cc4ccc(O)cc4)NC(=O)[C@H](CCCNC(=N)N)NC(=O)[C@H](CCSC)NC(=O)[C@H](CO)NC(=O)[C@H](Cc4cnc[nH]4)NC(=O)[C@H](CCCCN)NC3=O)C(=O)N[C@@H](CCCNC(=N)N)C(=O)N[C@@H](CCCCN)C(=O)N[C@@H]([C@@H](C)O)C(=O)N2)NC(=O)[C@H](CCCNC(=N)N)NC(=O)[C@H](CO)NC(=O)[C@H](CCCCN)NC(=O)[C@@H]2CCCN2C(=O)[C@H]([C@@H](C)CC)NC(=O)[C@H]([C@@H](C)O)NC(=O)[C@H](CC(=O)O)NC1=O` [[Arg22]ShK], the concentration for half-maximal inhibition (IC50) in assay [1] (Kv1.3 (IWQ) IC50 (nM, Avg)) was 18.7 nM.

`CC[C@H](C)[C@@H]1NC(=O)[C@@H](NC(=O)[C@H](CO)NC(=O)[C@@H](N)CCCNC(=N)N)CSSC[C@@H](C(=O)O)NC(=O)[C@H]([C@@H](C)O)NC(=O)CNC(=O)[C@@H]2CSSC[C@@H]3NC(=O)[C@H](CCC(N)=O)NC(=O)[C@H](Cc4ccccc4)NC(=O)[C@H](C)NC(=O)[C@H]([C@@H](C)O)NC(=O)[C@H](CSSC[C@H](NC(=O)[C@H](Cc4ccccc4)NC(=O)[C@H](CO)NC(=O)[C@H](CC(C)C)NC(=O)[C@H](CCCNC(=N)N)NC(=O)[C@H](CCCNC(=N)N)NC(=O)[C@H](CCCCN)NC(=O)[C@H](CCSC)NC(=O)[C@H](CO)NC(=O)[C@H](Cc4cnc[nH]4)NC(=O)[C@H](CCCCN)NC3=O)C(=O)N[C@@H](CCCNC(=N)N)C(=O)N[C@@H](CCCCN)C(=O)N[C@@H]([C@@H](C)O)C(=O)N2)NC(=O)[C@H](CCCNC(=N)N)NC(=O)[C@H](CO)NC(=O)[C@H](CCCCN)NC(=O)[C@@H]2CCCN2C(=O)[C@H]([C@@H](C)CC)NC(=O)[C@H]([C@@H](C)O)NC(=O)[C@H](CC(=O)O)NC1=O` [[Arg23]ShK] had a half-inhibitory concentration (IC50) in assay [1] (Kv1.3 (IWQ) IC50 (nM, Avg)) of 0.154 nM.

On to `CC[C@H](C)[C@@H]1NC(=O)[C@@H](NC(=O)[C@H](CO)NC(=O)[C@@H](N)CCCNC(=N)N)CSSC[C@@H](C(=O)O)NC(=O)[C@H]([C@@H](C)O)NC(=O)CNC(=O)[C@@H]2CSSC[C@@H]3NC(=O)[C@H](CCCCN)NC(=O)[C@H](Cc4ccccc4)NC(=O)[C@H](C)NC(=O)[C@H]([C@@H](C)O)NC(=O)[C@H](CSSC[C@H](NC(=O)[C@H](Cc4cccc5ccccc45)NC(=O)[C@H](CO)NC(=O)[C@H](CC(C)C)NC(=O)[C@H](CCCNC(=N)N)NC(=O)[C@H](Cc4ccc(O)cc4)NC(=O)[C@H](CCCCN)NC(=O)[C@H](CCSC)NC(=O)[C@H](CO)NC(=O)[C@H](Cc4c[nH]cn4)NC(=O)[C@H](CCCCN)NC3=O)C(=O)N[C@@H](CCCCN)C(=O)N[C@@H](CCCNC(=N)N)C(=O)N[C@@H]([C@@H](C)O)C(=O)N2)NC(=O)[C@H](CCCNC(=N)N)NC(=O)[C@H](CO)NC(=O)[C@H](CCCCN)NC(=O)[C@@H]2CCCN2C(=O)[C@H]([C@@H](C)CC)NC(=O)[C@H]([C@@H](C)O)NC(=O)[C@H](CC(=O)O)NC1=O` [[Lys16,29; 1-Na127;Arg30]ShK], for which the half-maximal inhibitory concentration (IC50) in assay [2] was 3.37 nM; in assay [3], 3.83 nM.

For `CC[C@H](C)[C@@H]1NC(=O)[C@@H](NC(=O)[C@H](CO)NC(=O)[C@@H](N)CCCNC(=N)N)CSSC[C@@H](C(=O)O)NC(=O)[C@H]([C@@H](C)O)NC(=O)CNC(=O)[C@@H]2CSSC[C@@H]3NC(=O)[C@H](CCCCN)NC(=O)[C@H](Cc4ccccc4)NC(=O)[C@H](C)NC(=O)[C@H]([C@@H](C)O)NC(=O)[C@H](CSSC[C@H](NC(=O)[C@H](Cc4ccccc4)NC(=O)[C@H](CO)NC(=O)[C@H](CC(C)C)NC(=O)[C@H](CCCNC(=N)N)NC(=O)[C@H](Cc4ccc(O)cc4)NC(=O)[C@H](CCCCN)NC(=O)[C@H](CCSC)NC(=O)[C@H](CO)NC(=O)[C@H](Cc4c[nH]cn4)NC(=O)[C@H](CCCCN)NC3=O)C(=O)N[C@@H](CCCNC(=N)N)C(=O)N[C@@H](CCCNC(=N)N)C(=O)N[C@@H]([C@@H](C)O)C(=O)N2)NC(=O)[C@H](CCCNC(=N)N)NC(=O)[C@H](CO)NC(=O)[C@H](CCCCN)NC(=O)[C@@H]2CCCN2C(=O)[C@H]([C@@H](C)CC)NC(=O)[C@H]([C@@H](C)O)NC(=O)[C@H](CC(=O)O)NC1=O` [[Lys16,Arg30]ShK], the 50% inhibitory concentration (IC50) in assay [2] worked out at 0.169 nM; in assay [3] it was 0.189 nM.
